Experimental data: the supplement of paper PMC7017272
± gives the standard deviation of the averaged measurements.

Key:
Details in all cases: treatment time: 3 days
UT-SCC-24B = assay: drug sensitivity score (DSS); higher = more sensitive; extreme values may be limits of the assay
How it was run: (§1)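 Viability of HPV-negative HNSCC cell lines was measured by CellTiter-Glo 2.0 luminescence. Cells were seeded at 500 cells/well in 384-well plates on plastic, on Matrigel- or Myogel-coated wells (500 µg/mL), or embedded in Matrigel or Myogel plus rat collagen I, then given compounds at five 10-fold concentrations for 3 days, with signals normalised to vehicle (0.1% DMSO) and cell-killing control wells. Fitting of percent-inhibition dose–response curves in the FIMM pipeline yielded IC50, maximal inhibition and drug sensitivity score.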

UT-SCC-73 [1] = assay: as above
How it was run: as §1

UT-SCC-81 = assay: as above
How it was run: as §1

UT-SCC-42A = assay: as above
How it was run: as §1

UT-SCC-40 = assay: as above
How it was run: as §1

UT-SCC-44 [2] = assay: as above
How it was run: as §1

UT-SCC-28 = assay: as above
How it was run: as §1

UT-SCC-42B = assay: as above
How it was run: as §1

UT-SCC-8 = assay: as above
How it was run: as §1

UT-SCC-14 = assay: as above
How it was run: as §1

UT-SCC-106A [3] = assay: as above
How it was run: as §1

UT-SCC-24A [4] = assay: drug sensitivity score (DSS); higher = more sensitive
Procedure: (§2)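 HNSCC cell lines (500 cells/well, 384-well) were cultured on plastic, on top of (2D) or embedded (3D) in Matrigel or human leiomyoma matrix Myogel (500 ug/mL; Myogel 3D mixed with rat collagen I). Cells were treated for 3 days with 5 ten-fold concentrations of each drug, and viability was read by CellTiter-Glo. Suffixes _1/_2/_3 on drug names are replicates.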

UT-SCC-73 [5] = assay: maximal % inhibition of viability relative to DMSO; higher = stronger effect
How it was run: as §1

UT-SCC-44 [6] = assay: as above
How it was run: as §1

UT-SCC-106A [7] = assay: as above
How it was run: as §1

UT-SCC-24A [8] = assay: maximal % inhibition of viability relative to DMSO; higher = stronger effect
Procedure: as §2, with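 “CellTiter-Glo. Viability was normalised to DMSO (0% inhibition) and 100 uM benzethonium chloride (100% inhibition) controls and fitted with the FIMM DSRT pipeline to give IC50 (nM), maximal % inhibition and the drug sensitivity score (DSS).” for “CellTiter-Glo.”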

[9] = culture condition: embedded in Matrigel
[10] = culture condition: embedded in Myogel + collagen I
[11] = culture condition: on top of Matrigel
[12] = culture condition: on top of Myogel
[13] = culture condition: plastic 2D (no matrix)

O=C(NC[C@H](O)CO)c1ccncc1Nc1ccc(I)cc1F [Pimasertib]
drug sensitivity score (UT-SCC-24B; [9]): 15.6 ± 1.2 DSS
drug sensitivity score (UT-SCC-24B; [10]): 14.4 ± 2 DSS
drug sensitivity score (UT-SCC-24B; [11]): 15 ± 0.9 DSS
drug sensitivity score (UT-SCC-24B; [12]): 9.1 ± 0.61 DSS
drug sensitivity score (UT-SCC-24B; [13]): 20.3 ± 1.8 DSS
drug sensitivity score (UT-SCC-73 [1]; [9]): 27.8 ± 0.5 DSS
drug sensitivity score (UT-SCC-73 [1]; [10]): 18.7 ± 4.6 DSS
drug sensitivity score (UT-SCC-73 [1]; [11]): 25.9 ± 0.64 DSS
drug sensitivity score (UT-SCC-73 [1]; [12]): 19.1 ± 1.1 DSS
drug sensitivity score (UT-SCC-73 [1]; [13]): 23 ± 0.68 DSS
drug sensitivity score (UT-SCC-81; [9]): 29.9 ± 0.51 DSS
drug sensitivity score (UT-SCC-81; [10]): 9.3 ± 3.1 DSS
drug sensitivity score (UT-SCC-81; [11]): 24 ± 1.8 DSS
drug sensitivity score (UT-SCC-81; [12]): 9.87 ± 0.5 DSS
drug sensitivity score (UT-SCC-81; [13]): 14.9 ± 1.4 DSS
drug sensitivity score (UT-SCC-42A; [9]): 20.9 ± 0.5 DSS
drug sensitivity score (UT-SCC-42A; [10]): 9.43 ± 1.3 DSS
drug sensitivity score (UT-SCC-42A; [11]): 20.5 ± 1.6 DSS
drug sensitivity score (UT-SCC-42A; [12]): 12.8 ± 0.46 DSS
drug sensitivity score (UT-SCC-42A; [13]): 16.33 ± 0.12 DSS
drug sensitivity score (UT-SCC-40; [9]): 27.63 ± 0.058 DSS
drug sensitivity score (UT-SCC-40; [10]): 20.2 ± 1.9 DSS
drug sensitivity score (UT-SCC-40; [11]): 23.8 ± 1.2 DSS
drug sensitivity score (UT-SCC-40; [12]): 14.9 ± 0.91 DSS
drug sensitivity score (UT-SCC-40; [13]): 15.5 ± 0.85 DSS
drug sensitivity score (UT-SCC-44 [2]; [9]): 26.7 ± 2.9 DSS
drug sensitivity score (UT-SCC-44 [2]; [10]): 11.7 ± 3 DSS
drug sensitivity score (UT-SCC-44 [2]; [11]): 22.7 ± 1.1 DSS
drug sensitivity score (UT-SCC-44 [2]; [12]): 13.1 ± 2.4 DSS
drug sensitivity score (UT-SCC-44 [2]; [13]): 16.4 ± 4 DSS
drug sensitivity score (UT-SCC-28; [9]): 12 ± 2.6 DSS
drug sensitivity score (UT-SCC-28; [10]): 9.97 ± 5.3 DSS
drug sensitivity score (UT-SCC-28; [11]): 11.4 ± 1.6 DSS
drug sensitivity score (UT-SCC-28; [13]): 5.03 ± 1.1 DSS
drug sensitivity score (UT-SCC-42B; [9]): 24.5 ± 2.7 DSS
drug sensitivity score (UT-SCC-42B; [11]): 16.2 ± 1 DSS
drug sensitivity score (UT-SCC-42B; [12]): 9.77 ± 0.96 DSS
drug sensitivity score (UT-SCC-42B; [13]): 10.1 ± 0.55 DSS
drug sensitivity score (UT-SCC-8; [9]): 20.5 ± 1.8 DSS
drug sensitivity score (UT-SCC-8; [10]): 10.7 ± 0.15 DSS
drug sensitivity score (UT-SCC-8; [11]): 18.2 ± 1.3 DSS
drug sensitivity score (UT-SCC-8; [12]): 17 ± 1.6 DSS
drug sensitivity score (UT-SCC-8; [13]): 16.9 ± 1.8 DSS
drug sensitivity score (UT-SCC-14; [9]): 13.9 ± 3.4 DSS
drug sensitivity score (UT-SCC-14; [10]): 12.2 ± 5.1 DSS
drug sensitivity score (UT-SCC-14; [11]): 10.6 ± 2.3 DSS
drug sensitivity score (UT-SCC-14; [12]): 8.27 ± 2.3 DSS
drug sensitivity score (UT-SCC-14; [13]): 8.03 ± 3.4 DSS
drug sensitivity score (UT-SCC-106A [3]; [9]): 19.4 ± 0.44 DSS
drug sensitivity score (UT-SCC-106A [3]; [10]): 5.6 ± 0.27 DSS
drug sensitivity score (UT-SCC-106A [3]; [11]): 22.2 ± 0.52 DSS
drug sensitivity score (UT-SCC-106A [3]; [12]): 6.27 ± 0.74 DSS
drug sensitivity score (UT-SCC-106A [3]; [13]): 22.2 ± 0.74 DSS
drug sensitivity score (UT-SCC-24A [4]; [9]): 34.8 ± 1.2 DSS
drug sensitivity score (UT-SCC-24A [4]; [10]): 18.5 ± 1.2 DSS
drug sensitivity score (UT-SCC-24A [4]; [11]): 31.6 ± 0.84 DSS
drug sensitivity score (UT-SCC-24A [4]; [12]): 15 ± 1.6 DSS
drug sensitivity score (UT-SCC-24A [4]; [13]): 28.3 ± 1.6 DSS
maximal % inhibition of viability (UT-SCC-73 [5]; [9]): 86.2 ± 1.2%
maximal % inhibition of viability (UT-SCC-73 [5]; [10]): 78.7 ± 13%
maximal % inhibition of viability (UT-SCC-73 [5]; [11]): 81.93 ± 0.55%
maximal % inhibition of viability (UT-SCC-73 [5]; [12]): 76.4 ± 1.3%
maximal % inhibition of viability (UT-SCC-73 [5]; [13]): 79.6 ± 1.4%
maximal % inhibition of viability (UT-SCC-44 [6]; [9]): 93.77 ± 0.93%
maximal % inhibition of viability (UT-SCC-44 [6]; [10]): 66.6 ± 8.2%
maximal % inhibition of viability (UT-SCC-44 [6]; [11]): 81.8 ± 2.8%
maximal % inhibition of viability (UT-SCC-44 [6]; [12]): 66.3 ± 3.5%
maximal % inhibition of viability (UT-SCC-44 [6]; [13]): 69.6 ± 7.2%
maximal % inhibition of viability (UT-SCC-106A [7]; [9]): 53.5 ± 4.2%
maximal % inhibition of viability (UT-SCC-106A [7]; [10]): 43.4 ± 1.8%
maximal % inhibition of viability (UT-SCC-106A [7]; [11]): 63.2 ± 0.68%
maximal % inhibition of viability (UT-SCC-106A [7]; [12]): 54.1 ± 3.3%
maximal % inhibition of viability (UT-SCC-106A [7]; [13]): 70 ± 1.2%
maximal % inhibition of viability (UT-SCC-24A [8]; [9]): 85 ± 0.94%
maximal % inhibition of viability (UT-SCC-24A [8]; [10]): 77.9 ± 2.9%
maximal % inhibition of viability (UT-SCC-24A [8]; [11]): 81.4 ± 1.8%
maximal % inhibition of viability (UT-SCC-24A [8]; [12]): 68 ± 3.4%
maximal % inhibition of viability (UT-SCC-24A [8]; [13]): 79.3 ± 2.7%
